{"source": "patent US11357752B2", "about": "“Carolacton and derivatives thereof for use in the treatment of cell proliferation disorders” (Helmholtz-Zentrum für Infektionsforschung GmbH, priority 2017, dated 2022)", "key": {"[1]": {"target": "T1, ecFoID (Escherichia coli, UniProt P24186)", "T1 construct": "His-tag (vector pHis-TEV); made in house; host or cells: E. coli BL21 (DE3)", "test": "Surface plasmon resonance assay", "type": "binding, E. coli", "method": "(§1) All surface plasmon resonance (SPR) experiments described in this study were performed on a Biacore X100 system. Different FoIDs with or without His-tag were coupled on CM5 sensor chips (GE Healthcare) by the amine coupling method using a kit from GE Healthcare Life Sciences (Freiburg, Germany). A pH scouting process was performed before protein immobilization to test the most appropriate buffer and the protein concentration for protein coupling. Finally, 20 μg/mL of ecFoID in 10 mM maleate buffer (pH 6.8), 30 μg/mL of ecFoID Q98H in 10 mM maleate buffer (pH 6.3), 40 μg/mL of ecFoID K54N in 10 mM maleate buffer (pH 5.8), 20 μg/mL of spFoID in 10 mM maleate buffer (pH 6.0) and 15 μg/mL of MTHFD2 (His-tag cleaved) in 10 mM maleate buffer (pH 6.8) were used for coupling. In the protein immobilization procedure, the contact time was calculated based on the pH scouting results to achieve -3000-5000 relative resonance units (RU). The buffer used in the SPR assays was 1×HBS-P buffer (10 mM HEPES pH 7.4, 150 mM NaCl, 0.05% Tween 20). The 1 mM stock solution of carolacton was prepared in 1×HBS-P buffer and diluted to different concentration ranges by two-fold serial dilution. In the SPR assay, the association time was 180 s and the dissociation time was 600 s. Data analysis was performed using the Biacore evaluation software. The SPR curves were exported to be re-plotted in OriginPro 2016 (OriginLab, Northampton, Mass., US)."}, "[2]": {"target": "T2, ecFoID K54N (Escherichia coli, UniProt P24186, K54N)", "T2 construct": "made in house; host or cells: E. coli BL21 (DE3)", "test": "Surface plasmon resonance assay", "type": "binding, E. coli", "method": "as §1"}, "[3]": {"target": "T3, ecFoID Q98H (Escherichia coli, UniProt P24186, Q98H)", "T3 construct": "made in house; host or cells: E. coli BL21 (DE3)", "test": "Surface plasmon resonance assay", "type": "binding, E. coli", "method": "as §1"}, "[4]": {"tested_on": "L-929 mouse fibroblasts", "test": "Toxicity assay (MTT, confluent layer)", "type": "cell-based", "settings": "L929; after 18 h", "method": "L-929 mouse fibroblasts from DSMZ cultivated at 37° C. and […] in DME medium (high glucose) supplemented with 10% fetal calf serum. Cell culture reagents came from Life Technologies Inc. (GIBCO BRL). […] of sus-pended cells (100,000/mL) were seeded into wells of 96-well plate. After 4 days when the cells had formed a confluent layer, […] of serial dilutions of the test compound were added to the cells. After 18 hours of incubation metabolic activity of the cells was determined using an MTT assay (Mosman et al., 1983)."}}, "note": "“Also recorded” adds a separate entry of the source.", "data": [{"smiles": "CO[C@H](CC(=O)O)[C@@H](C)C(=O)[C@H](C)/C=C(\\C)[C@H]1OC(=O)[C@H](O)[C@H](O)/C=C/[C@H](C)CCC[C@@H]1C", "note": "[Carolacton, carolacton]", "values": [{"measurement": "Kd", "setting": "[1]", "value": 0.01, "unit": "µM"}, {"measurement": "binding (SPR), in words", "setting": "[2]", "value": "no binding; also recorded: does not bind"}, {"measurement": "Kd", "setting": "[3]", "value": 20, "unit": "µM"}, {"measurement": "binding (SPR), in words", "setting": "[3]; ecFoID Q98H", "value": "weak binding"}, {"measurement": "acute toxicity", "setting": "[4]", "value": "no acute toxicity"}]}]}
